Assays:
lymphocytes [1] = conditions: in vitro; cited from earlier work
lymphocytes [2] = conditions: cancer patients, intravenous administration; cited from earlier work
[3] = test system: human breast cancer cells; conditions: cited from earlier work
E. sertula = experiment: gentamicin treatment of B. neritina larvae, E. sertula and KSa levels by specific PCR; set-up: species or system Candidatus Endobugula sertula; conditions: about 100 micrograms per milliliter for about seven days post-settlement, grown out 3 months, vs untreated controls
Procedure: (§1) B. neritina larvae were treated with gentamicin at about 100 micrograms per milliliter for about seven days post-settlement, grown out for 3 months to re-establish their commensal bacterial flora, and then assayed for E. sertula levels and KSa levels by specific PCR and bryostatin activity by phorbol dibutyrate displacement (PdBu) assay (FIG. 7). The standard method for detecting bryostatins is the PdBu displacement assay (DeVries et al., 1988). Rat brain liposomes are incubated with tritiated PdBu, which binds to PKC in the liposomes. The liposomes are collected by filtration and counted in a scintillation counter. If an extract is added that contains a compound that can compete with phorbol for binding, less tritiated PdBu is bound. The assay has a subnanomolar detection limit for pure bryostatin 1 and is suitable for milligram quantities of sample. In B. neritina, the only compounds with PdBu activity are bryostatins, and PdBu activity is a good measure of total bryostatin activity.

B. neritina = experiment: gentamicin treatment of B. neritina larvae, bryostatin activity and growth of colonies; set-up: species or system Bugula neritina; conditions: about 100 micrograms per milliliter for about seven days post-settlement
Procedure: as §1

melanoma = conditions: cited from earlier work; for side effects: compared with bryostatin 1, melanoma treatment; for effectiveness in treating melanoma: compared with bryostatin 1

CCC/C=C/C=C/C(=O)O[C@H]1/C(=C/C(=O)OC)C[C@H]2C[C@H]([C@@H](C)O)OC(=O)C[C@H](O)C[C@@H]3C[C@H](OC(C)=O)C(C)(C)[C@](O)(C[C@@H]4C/C(=C/C(=O)OC)C[C@H](/C=C/C(C)(C)[C@]1(O)O2)O4)O3 [bryostatin 1]
effect on lymphocytes in combination with IL-2 (lymphocytes [1]): enhances proliferation and IL-2 receptor expression on lymphocytes | effect on IL-2-induced lymphocyte activity in patients (lymphocytes [2]): increased the potential of IL-2 to induce proliferation of LAK activity in lymphocytes | sensitization to the cytotoxic effects of gemcitabine [3]: sensitized human breast cancer cells to the cytotoxic effects of gemcitabine

gentamicin
KSa levels (E. sertula; specific PCR): reduced dramatically | E. sertula population (E. sertula; FIG. 7): reduced dramatically | bryozoan growth rates, treated versus untreated colonies (B. neritina): the same | bryostatin activity of treated colonies (PdBu assay) (B. neritina; grown out 3 months, vs untreated controls): reduced

COC(=O)/C=C1/C[C@H]2C[C@]3(O)O[C@H](C[C@@H](O)CC(=O)O[C@@H]([C@@H](C)O)C[C@H]4C/C(=C\C(=O)OC)[C@H](OC(C)=O)[C@@](O)(O4)C(C)(C)/C=C/[C@@H](C1)O2)C[C@H](OC(=O)CC(C)C)C3(C)C [bryostatin 5]
side effects (melanoma): milder side effects | effectiveness in treating melanoma (melanoma): as effective as bryostatin 1

bryostatin 8
side effects (melanoma): milder side effects | effectiveness in treating melanoma (melanoma): as effective as bryostatin 1

Source: patent US20020081665A1, “Bryostatins, bryopyrans and polyketides: compositions and methods” (priority 1999, published 2002)
